Laboratory results: patent publication US9278981B2, “Compounds and compositions for inhibiting the activity of ABL1, ABL2 and BCR-ABL1” (Novartis AG, priority 2012, dated 2016)

Tests used:
[1] = target: T1, ABL1 (64-515) (Homo sapiens (Human), UniProt P00519); assay: Radio ABL1 (64-515) assay (radiometric filter-binding); type: biochemical
[2] = target: T1, ABL1 (64-515); assay: Caliper ABL1 (64-515) assay (microfluidic mobility shift); type: biochemical
[3] = test system: Ba/F3-BCR-ABL1-WT cells; assay: cells; conditions: Mus musculus, 48 h, read-out: Ba/F3-BCR-ABL1-WT IC50 [μM]
From the text: To generate Ba/F3 cells that depend on BCR-ABL1 expression for growth and survival, Ba/F3 cells were engineered to express BCR-ABL1 using retroviral transduction with a MSCV based retroviral vector containing a p210 BCR-ABL1 expression cassette. […] These cells are referred to as Ba/F3-BCR-ABL-WT.
Ba/F3-BCR-ABL1-WT cells and Ba/F3-BCR-ABL1-T315I cells were maintained in RPMI1640 media with L-glutamine, HEPES (Lonza) and 10% FBS (Gibco).
For each cell line, the cell density was adjusted to 50 000 cells/mL and 50 μL (2500 cells) added per well of a 384-well assay plate.
Test compounds were resuspended in DMSO at a concentration of 10 mM. A serial three-fold dilution of each compound with DMSO was performed in 384-well plates using the Janus Liquid Dispenser (PerkinElmer). Compound was delivered to the assay plates containing 2500 cells in a 50 μL volume via Acoustic delivery from an ATS-100 (EDC).
Cells were incubated at 37° C. in a humidified environment with 5% carbon dioxide for 48 hours. Britelite plus solution (Perkin Elmer) was prepared according to the manufacturer's instructions and 25 μL added to each well of the assay plate. […] The degree of luminescence correlates with the number of cells in each well. The effect of each inhibitor concentration can therefore be calculated and IC50 values generated.

[4] = test system: BCR-ABL1+KCL-22 cells; assay: Acquired resistance in BCR-ABL1+KCL-22 cells in vitro; type: cell-based; conditions: cells treated every 3-4 days

T1 sequence (P00519 64-515): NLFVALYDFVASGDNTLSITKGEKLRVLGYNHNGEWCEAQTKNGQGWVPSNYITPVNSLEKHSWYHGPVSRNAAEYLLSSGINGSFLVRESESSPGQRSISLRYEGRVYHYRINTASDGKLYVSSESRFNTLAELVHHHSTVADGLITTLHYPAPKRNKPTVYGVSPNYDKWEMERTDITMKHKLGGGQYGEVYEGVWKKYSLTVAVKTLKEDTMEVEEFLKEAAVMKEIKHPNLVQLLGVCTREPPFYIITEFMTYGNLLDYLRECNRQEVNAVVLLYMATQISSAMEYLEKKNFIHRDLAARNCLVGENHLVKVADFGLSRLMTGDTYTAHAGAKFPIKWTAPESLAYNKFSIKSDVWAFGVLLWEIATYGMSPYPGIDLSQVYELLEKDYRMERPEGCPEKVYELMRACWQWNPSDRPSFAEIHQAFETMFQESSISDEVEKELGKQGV

SMILES | IC50 [1] | IC50 [2] | IC50 [3] | time until acquired resistance [4]
O=C(Nc1ccc(SC(F)(F)Cl)cc1)c1cnc(N2CC[C@@H](O)C2)c(-c2cncc(F)c2)c1 [Example 218, (R)—N-(4-((Chlorodifluoromethyl)thio)phenyl)-5′-fluoro-2-(3-hydroxypyrrolidin-1-yl)-[3,3′-bipyridine]-5-carboxamide] | 3 nM | 0.6 nM | 0.0009 µM | –
O=C(Nc1ccc(C(F)(F)C(F)(F)F)cc1)c1cnc(N2CC[C@@H](O)C2)c(-c2cncnc2)c1 [Example 208, (R)-6-(3-Hydroxypyrrolidin-1-yl)-N-(4-(perfluoroethyl)phenyl)-5-(pyrimidin-5-yl)nicotinamide] | < 3 nM | 0.6 nM | 0.0039 µM | –
N#Cc1cncc(-c2cc(C(=O)Nc3ccc(OC(F)(F)Cl)cc3)cnc2N2C[C@@H](O)[C@@H](O)C2)c1 [Example 268] | 0.5 nM | 0.4 nM | 0.0032 µM | –
O=C(Nc1ccc(S(F)(F)(F)(F)F)cc1)c1cnc(N2CC[C@@H](O)C2)c(-c2cncnc2)c1 [Example 216, (R)-6-(3-Hydroxypyrrolidin-1-yl)-5-(pyrimidin-5-yl)-N-(4-(pentafluorosulfanyl)phenyl)nicotinamide] | 3 nM | 0.7 nM | 0.0074 µM | –
Cc1cn(-c2cc(NC(=O)c3ccc(C)c(Nc4nccc(-c5cccnc5)n4)c3)cc(C(F)(F)F)c2)cn1 [nilotinib] | – | – | – | 18 to 21 days
O=C(Nc1ccc(OC(F)(F)Cl)cc1)c1cnc(N2CC[C@@H](CO)[C@@H](O)C2)c(-c2cncnc2)c1 [Example 257] | 3 nM | 0.6 nM | 0.0011 µM | –
O=C(Nc1ccc(OC(F)(F)Cl)cc1)c1cnc(N2CC[C@@H](O)C2)c(-c2cncnc2)c1 [Example 170, (R)—N-(4-(Chlorodifluoromethoxy)phenyl)-6-(3-hydroxypyrrolidin-1-yl)-5-(pyrimidin-5-yl)nicotinamide] | – | – | 0.0005 µM | –
N[C@H]1CN(c2ccc(C(=O)Nc3ccc(OC(F)(F)Cl)cc3)cc2-c2cncc(F)c2)C[C@@H]1O [Example 285, 4-((3S,4S)-3-Amino-4-hydroxypyrrolidin-1-yl)-N-(4-(chlorodifluoromethoxy)phenyl)-3-(5-fluoropyridin-3-yl)benzamide] | 1 nM | 0.6 nM | 0.0053 µM | –
O=C(Nc1ccc(OC(F)(F)Cl)cc1)c1cnc(N2CC[C@@H](O)C2)c(-c2cc(F)cnc2F)c1 [Example 272] | 4 nM | 1.1 nM | – | –
O=C(Nc1ccc(OC(F)(F)Cl)cc1)c1cnc(N2CC(O)C2)c(-c2cncnc2)c1 [Example 258] | 2.7 nM | 1.1 nM | – | –
O=C(Nc1ccc(OC(F)(F)F)cc1)c1cnc(N2CC[C@@H](O)C2)c(-c2cccc(F)c2)c1 [Example 58, (R)-5-(3-Fluorophenyl)-6-(3-hydroxypyrrolidin-1-yl)-N-(4-(trifluoromethoxy)phenyl)nicotinamide] | 4 nM | 0.6 nM | – | –
O=C(Nc1ccc(S(F)(F)(F)(F)F)cc1)c1cnc(N2CC[C@@H](O)C2)c(-c2cncc(F)c2)c1 [Example 277] | 2 nM | 1.7 nM | – | –
CN(CCO)c1ncc(C(=O)Nc2ccc(OC(F)(F)F)cc2)cc1-c1cncc(C#N)c1 [Example 155, 5′-Cyano-2-((2-hydroxyethyl)(methyl)amino)-N-(4-(trifluoromethoxy)phenyl)-[3,3′-bipyridine]-5-carboxamide] | 11 nM | 5 nM | – | –
Cc1ncc(-c2cc(C(=O)Nc3ccc(OC(F)(F)F)cc3)cnc2N2CC[C@H](CO)C2)cc1F [Example 87, (S)-5′-Fluoro-2-(3-(hydroxymethyl)pyrrolidin-1-yl)-6′-methyl-N-(4-(trifluoromethoxy)phenyl)-[3,3′-bipyridine]-5-carboxamide] | 6 nM | 0.7 nM | – | –
Nc1ncc(-c2cc(C(=O)Nc3ccc(OC(F)(F)Cl)cc3)cnc2N2CC[C@@H](O)C2)cc1F [Example 271] | 0.5 nM | 0.7 nM | – | –
CN(CCO)c1ncc(C(=O)Nc2ccc(SC(F)(F)F)cc2)cc1-c1cncc(F)c1 [Example 193, 5′-Fluoro-2-((2-hydroxyethyl)(methyl)amino)-N-(4-((trifluoromethyl)thio)phenyl)-[3,3′-bipyridine]-5-carboxamide] | 2.3 nM | 0.4 nM | – | –
O=C(Nc1ccc(OC(F)(F)F)cc1)c1cnc(N2CC(CO)C2)c(-c2cncnc2)c1 [Example 135, 6-(3-(Hydroxymethyl)azetidin-1-yl)-5-(pyrimidin-5-yl)-N-(4-(trifluoromethoxy)phenyl)nicotinamide] | < 3 nM | 2 nM | – | –
O=C(Nc1ccc(OC(F)(F)F)cc1)c1cnc(N2CC[C@@H](O)C2)c(-c2cc(F)nc(F)c2)c1 [Example 242, (R)-2′,6′-Difluoro-2-(3-hydroxypyrrolidin-1-yl)-N-(4-(trifluoromethoxy)phenyl)-[3,4′-bipyridine]-5-carboxamide] | 6 nM | 4.5 nM | – | –
NC1CN(c2ncc(C(=O)Nc3ccc(OC(F)(F)F)cc3)cc2-c2cncc(F)c2)C1 [Example 238, 2-(3-Aminoazetidin-1-yl)-5′-fluoro-N-(4-(trifluoromethoxy)phenyl)-[3,3′-bipyridine]-5-carboxamide] | 2 nM | 2.6 nM | – | –
CC(F)(F)Oc1ccc(NC(=O)c2cnc(N3CC[C@@H](O)C3)c(-c3cncc(F)c3)c2)cc1 [Example 275] | 5 nM | 2.8 nM | – | –
CN(C)[C@H]1CN(c2ncc(C(=O)Nc3ccc(OC(F)(F)F)cc3)cc2-c2cncnc2)C[C@@H]1O [Example 225, 6-((3S,4S)-3-(Dimethylamino)-4-hydroxypyrrolidin-1-yl)-5-(pyrimidin-5-yl)-N-(4-(trifluoromethoxy)phenyl)nicotinamide] | 2 nM | 8.5 nM | – | –
CC(F)(F)Oc1ccc(NC(=O)c2cnc(N3CC[C@@H](O)C3)c(-c3cncnc3)c2)cc1 [Example 215, (R)—N-(4-(1,1-Difluoroethoxy)phenyl)-6-(3-hydroxypyrrolidin-1-yl)-5-(pyrimidin-5-yl)nicotinamide] | 1.2 nM | 7.9 nM | 0.0246 µM | –
O=C(Nc1ccc(OC(F)(F)Cl)cc1)c1cnc(N2CC[C@@H](O)C2)c(-c2cccnc2F)c1 [Example 172, (R)—N-(4-(Chlorodifluoromethoxy)phenyl)-2′-fluoro-2-(3-hydroxypyrrolidin-1-yl)-[3,3′-bipyridine]-5-carboxamide] | < 3 nM | 0.3 nM | – | –
Cc1ncncc1-c1cc(C(=O)Nc2ccc(OC(F)(F)Cl)cc2)ccc1N1C[C@H](O)[C@@H](O)C1 [Example 297, N-(4-(Chlorodifluoromethoxy)phenyl)-4-((3S,4S)-3,4-dihydroxypyrrolidin-1-yl)-3-(4-methylpyrimidin-5-yl)benzamide] | – | 1.4 nM | 0.0013 µM | –
O=C(Nc1ccc(OC(F)(F)F)cc1)c1cnc(N2CC(O)C2)c(-c2cncnc2)c1 [Example 25] | < 3 nM | 1.9 nM | – | –
Cc1ncccc1-c1cc(C(=O)Nc2ccc(OC(F)(F)Cl)cc2)cnc1N1CC[C@@H](O)C1 [Example 270] | 2 nM | 0.6 nM | – | –
O=C(Nc1ccc(OC(F)(F)F)cc1)c1cnc(N2CCC(F)(F)C2)c(-c2cncnc2)c1 [Example 224, 6-(3,3-Difluoropyrrolidin-1-yl)-5-(pyrimidin-5-yl)-N-(4-(trifluoromethoxy)phenyl)nicotinamide] | 1.6 nM | 4.7 nM | – | –
CN[C@H]1CCN(c2ncc(C(=O)Nc3ccc(OC(F)(F)F)cc3)cc2-c2cncnc2)C1 [Example 102, (S)-6-(3-(Methylamino)pyrrolidin-1-yl)-5-(pyrimidin-5-yl)-N-(4-(trifluoromethoxy)phenyl)nicotinamide] | < 3 nM | 2.3 nM | – | –
CCN(CCO)c1ncc(C(=O)Nc2ccc(SC(F)(F)F)cc2)cc1-c1cncnc1 [Example 195, 6-(Ethyl(2-hydroxyethyl)amino)-5-(pyrimidin-5-yl)-N-(4-((trifluoromethyl)thio)phenyl)nicotinamide] | 3 nM | < 0.13 nM | – | –
O=C(Nc1ccc(OC(F)(F)F)cc1)c1cnc(N2CC[C@H](CO)C2)c(-c2ccc(CF)nc2)c1 [Example 84, (S)-6′-(Fluoromethyl)-2-(3-(hydroxymethyl)pyrrolidin-1-yl)-N-(4-(trifluoromethoxy)phenyl)-[3,3′-bipyridine]-5-carboxamide] | 3 nM | 1.1 nM | – | –
